Data taken from BindingDB's records for patent US20250282794 (Curadev Pharma, 2025).

Target: Mitogen-activated protein kinase kinase kinase kinase 1 (Homo sapiens, UniProt Q92918)
Assay: HPK-1 biochemical enzyme assay
Experimental: Compound inhibitory potency was measured in an HPK-1 kinase inhibition assay. Briefly, recombinant full length HPK-1 enzyme (6.8 nM) was incubated with 10 μM ATP and 12.5 μM swine myelin basic protein (MBP) for 30 mins. at 25° C. in the presence of various concentrations of test compound or vehicle in 40 mM Tris.Cl pH7.4 buffer containing 20 mM MgCl2, 50 μM DTT and 0.1 mg/mL BSA. Reactions were quenched and reaction mixtures were then analyzed by an ADP-Glo kit which measures the formed ADP. The percent inhibition was calculated from the substrate conversion considering no enzyme control reactions for 100% inhibition and vehicle only reactions for 0% inhibition. The compounds were dissolved in DMSO and evaluated at 10 concentrations to determine an IC50 value.

Chain of Mitogen-activated protein kinase kinase kinase kinase 1 (Q92918 whole entry): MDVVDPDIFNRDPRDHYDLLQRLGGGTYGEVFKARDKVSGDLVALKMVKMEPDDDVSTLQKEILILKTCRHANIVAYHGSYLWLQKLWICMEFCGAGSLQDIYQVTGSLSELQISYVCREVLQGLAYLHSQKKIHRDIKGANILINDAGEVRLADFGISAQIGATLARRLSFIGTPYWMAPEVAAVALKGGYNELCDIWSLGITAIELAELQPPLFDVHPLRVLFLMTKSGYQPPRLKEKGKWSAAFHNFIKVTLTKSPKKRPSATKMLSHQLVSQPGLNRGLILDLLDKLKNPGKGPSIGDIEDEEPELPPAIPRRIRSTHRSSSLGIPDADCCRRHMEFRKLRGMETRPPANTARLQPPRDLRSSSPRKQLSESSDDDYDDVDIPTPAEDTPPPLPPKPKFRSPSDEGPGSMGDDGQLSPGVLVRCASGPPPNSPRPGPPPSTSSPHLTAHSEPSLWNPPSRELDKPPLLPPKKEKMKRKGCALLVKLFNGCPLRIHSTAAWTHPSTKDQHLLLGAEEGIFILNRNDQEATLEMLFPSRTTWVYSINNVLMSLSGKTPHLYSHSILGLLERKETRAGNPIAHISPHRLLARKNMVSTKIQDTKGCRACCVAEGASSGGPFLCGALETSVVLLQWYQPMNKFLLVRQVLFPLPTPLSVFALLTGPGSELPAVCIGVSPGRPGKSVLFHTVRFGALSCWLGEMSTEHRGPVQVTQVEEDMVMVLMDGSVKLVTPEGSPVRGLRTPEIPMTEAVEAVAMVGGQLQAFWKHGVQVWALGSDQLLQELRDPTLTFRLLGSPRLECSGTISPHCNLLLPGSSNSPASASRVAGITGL

| Compound | IC50 [nM] |
| --- | --- |
| Cc1c(Nc2cc[nH]c(=O)c2C(=O)Nc2ccc(N3CCN(c4ccccn4)CC3)cc2)cnc2c1NCCO2 [US20250282794, Example 289] | < 10 |
| Cc1c(Nc2cc[nH]c(=O)c2C(=O)Nc2ccc(-c3ccccc3)cc2)cnc2c1NCCO2 [US20250282794, Example 331] | 10 to 100 |
| COCCCN1CCN(c2ccc(NC(=O)c3c(Nc4cnc5c(c4C)NCCO5)cc[nH]c3=O)cc2)CC1 [US20250282794, Example 277] | < 10 |
| Cc1c(Nc2cc[nH]c(=O)c2C(=O)Nc2ccc(N3CCN(C(=O)C4CCC4)CC3)cc2)cnc2c1NCCO2 [US20250282794, Example 314] | < 10 |
| Cc1c(Nc2cc[nH]c(=O)c2C(=O)Nc2ccc(N3CCN(C)CC3)c(CN)c2)cnc2c1NCCO2 [US20250282794, Example 393] | < 10 |
| Cc1c(Nc2cc[nH]c(=O)c2C(=O)Nc2ccc(C3CCN(C(C)C)CC3)cc2)cnc2c1NCCO2 [US20250282794, Example 279] | < 10 |
| Cc1c(Nc2cc[nH]c(=O)c2C(=O)Nc2ccc(N3CCC(O)CC3)cc2)cnc2c1NCCO2 [US20250282794, Example 278] | < 10 |
| Cc1c(Nc2cc[nH]c(=O)c2C(=O)Nc2ccc(N3CCN(C4CCCC4)CC3)c(N)c2)cnc2c1NCCO2 [US20250282794, Example 311] | < 10 |
| Cc1c(Nc2cc[nH]c(=O)c2C(=O)Nc2ccc(N3CCC(O)(CN(C)C)CC3)c(F)c2)cnc2c1NCC(C)O2 (stereo unspecified) [US20250282794, Example 388] | < 10 |
| COCCN1CCN(c2ccc(NC(=O)c3c(Nc4cnc5c(c4C)NCCO5)cc[nH]c3=O)cc2F)CC1 [US20250282794, Example 194] | < 10 |
| COCCN1CCN(c2ccc(NC(=O)c3c(Nc4cnc5c(c4C)NCCO5)cc[nH]c3=O)cc2C)CC1 [US20250282794, Example 275] | < 10 |
